In US12240904B2, “Use of anti-PD-1 antibody in combination with famitinib in preparation of drug for treating tumors” (Jiangsu Hengrui Medicine Co., Ltd., priority 2018, dated 2025):
Read-outs that look alike come from different tables or passages of the source.

Legend:
kidney cancer = settings: Compound B 25 mg, q.d., alone; cited from earlier work
Axl = target: T1, Axl (Homo sapiens, UniProt P30530); experiment: IC50Profiler in vitro kinase activity; type: biochemical; settings: ATP 10 μM
T1 construct: purchased
T1 sequence (P30530 26-894): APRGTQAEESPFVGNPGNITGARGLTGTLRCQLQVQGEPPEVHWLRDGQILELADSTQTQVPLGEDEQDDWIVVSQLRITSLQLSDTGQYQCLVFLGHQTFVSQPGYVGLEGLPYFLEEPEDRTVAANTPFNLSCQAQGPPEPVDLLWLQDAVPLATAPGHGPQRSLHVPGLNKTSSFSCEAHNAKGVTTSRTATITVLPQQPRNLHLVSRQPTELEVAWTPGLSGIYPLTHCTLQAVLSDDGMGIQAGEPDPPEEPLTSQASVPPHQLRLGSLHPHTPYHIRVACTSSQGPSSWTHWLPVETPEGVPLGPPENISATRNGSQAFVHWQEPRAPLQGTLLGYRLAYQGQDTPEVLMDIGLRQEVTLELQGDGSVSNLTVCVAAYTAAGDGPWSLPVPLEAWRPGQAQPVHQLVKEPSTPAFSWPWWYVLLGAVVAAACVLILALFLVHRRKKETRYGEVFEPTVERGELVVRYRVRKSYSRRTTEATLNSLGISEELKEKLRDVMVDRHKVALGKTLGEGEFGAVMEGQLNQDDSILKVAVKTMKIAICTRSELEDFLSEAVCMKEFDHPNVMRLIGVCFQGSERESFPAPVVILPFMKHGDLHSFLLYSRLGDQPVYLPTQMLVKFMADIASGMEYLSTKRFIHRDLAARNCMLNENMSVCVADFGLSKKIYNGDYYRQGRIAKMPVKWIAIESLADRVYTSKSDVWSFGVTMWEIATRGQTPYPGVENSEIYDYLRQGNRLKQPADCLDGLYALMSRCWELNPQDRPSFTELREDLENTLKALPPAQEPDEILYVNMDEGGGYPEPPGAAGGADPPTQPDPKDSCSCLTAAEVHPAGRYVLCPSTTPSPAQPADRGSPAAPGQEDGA
Method: (§1) (1) Experimental Procedures for IC50Profiler™
(§2) Appropriate amounts of kinase and peptide substrates were separately mixed with different concentrations of famitinib malate (1 nM, 3 nM, 10 nM, 30 nM, 100 nM, 300 nM, 1 μM, 3 μM, 10 μM) and incubated for 60 min at room temperature. Magnesium acetate and [gamma-33P]-ATP were added to initiate the kinase-catalyzed reaction, and the reaction was carried out at room temperature for 40 minutes. After the reaction was finished, 3% phosphoric acid solution was added to terminate the reaction. 10 μL of the reaction mixture was taken and added onto a P30 filter membrane to be filtered. The membrane was washed with 75 mM phosphate buffer for 3 times and washed once with methanol to remove free [gamma-33P]-ATP. The protein was fixed, and the membrane was dried. The liquid scintillation analyzer was used to determine the amount of peptide substrate by counting the amount of 33P.

Mer = target: T2, Mer (Homo sapiens, UniProt Q12866); experiment: IC50Profiler in vitro kinase activity; type: biochemical; settings: ATP 10 μM
T2 construct: purchased
T2 sequence (Q12866 21-999): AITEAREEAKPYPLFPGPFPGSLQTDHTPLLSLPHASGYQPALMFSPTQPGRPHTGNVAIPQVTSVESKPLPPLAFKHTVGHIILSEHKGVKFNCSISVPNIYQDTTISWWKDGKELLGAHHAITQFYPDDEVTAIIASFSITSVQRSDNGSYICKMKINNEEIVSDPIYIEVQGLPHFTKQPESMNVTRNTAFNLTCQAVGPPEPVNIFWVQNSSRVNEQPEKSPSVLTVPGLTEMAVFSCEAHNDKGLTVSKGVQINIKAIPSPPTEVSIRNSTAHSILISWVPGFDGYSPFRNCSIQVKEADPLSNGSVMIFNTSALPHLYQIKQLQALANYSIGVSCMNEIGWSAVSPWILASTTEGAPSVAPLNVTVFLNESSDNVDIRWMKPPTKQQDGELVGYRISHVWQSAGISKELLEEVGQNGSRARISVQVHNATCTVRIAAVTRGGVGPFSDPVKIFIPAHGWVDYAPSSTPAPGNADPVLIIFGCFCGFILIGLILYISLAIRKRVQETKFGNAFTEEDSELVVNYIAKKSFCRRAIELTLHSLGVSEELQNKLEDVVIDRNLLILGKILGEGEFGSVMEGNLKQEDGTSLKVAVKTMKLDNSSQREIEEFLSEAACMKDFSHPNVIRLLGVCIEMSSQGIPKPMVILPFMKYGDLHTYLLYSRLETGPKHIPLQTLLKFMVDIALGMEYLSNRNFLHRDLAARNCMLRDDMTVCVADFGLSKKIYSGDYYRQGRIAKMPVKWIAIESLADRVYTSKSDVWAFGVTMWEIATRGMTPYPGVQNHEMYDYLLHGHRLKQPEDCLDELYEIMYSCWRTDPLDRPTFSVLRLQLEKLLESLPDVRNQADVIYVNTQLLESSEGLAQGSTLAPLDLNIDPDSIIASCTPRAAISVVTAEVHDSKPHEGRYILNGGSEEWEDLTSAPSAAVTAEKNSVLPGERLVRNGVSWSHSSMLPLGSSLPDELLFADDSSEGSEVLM
Method: as §1, §2

TYRO3 (Rse) = target: T3, TYRO3 (Rse) (Homo sapiens, UniProt Q06418); experiment: IC50Profiler in vitro kinase activity; type: biochemical; settings: ATP 10 μM
T3 construct: purchased
T3 sequence (Q06418 41-890): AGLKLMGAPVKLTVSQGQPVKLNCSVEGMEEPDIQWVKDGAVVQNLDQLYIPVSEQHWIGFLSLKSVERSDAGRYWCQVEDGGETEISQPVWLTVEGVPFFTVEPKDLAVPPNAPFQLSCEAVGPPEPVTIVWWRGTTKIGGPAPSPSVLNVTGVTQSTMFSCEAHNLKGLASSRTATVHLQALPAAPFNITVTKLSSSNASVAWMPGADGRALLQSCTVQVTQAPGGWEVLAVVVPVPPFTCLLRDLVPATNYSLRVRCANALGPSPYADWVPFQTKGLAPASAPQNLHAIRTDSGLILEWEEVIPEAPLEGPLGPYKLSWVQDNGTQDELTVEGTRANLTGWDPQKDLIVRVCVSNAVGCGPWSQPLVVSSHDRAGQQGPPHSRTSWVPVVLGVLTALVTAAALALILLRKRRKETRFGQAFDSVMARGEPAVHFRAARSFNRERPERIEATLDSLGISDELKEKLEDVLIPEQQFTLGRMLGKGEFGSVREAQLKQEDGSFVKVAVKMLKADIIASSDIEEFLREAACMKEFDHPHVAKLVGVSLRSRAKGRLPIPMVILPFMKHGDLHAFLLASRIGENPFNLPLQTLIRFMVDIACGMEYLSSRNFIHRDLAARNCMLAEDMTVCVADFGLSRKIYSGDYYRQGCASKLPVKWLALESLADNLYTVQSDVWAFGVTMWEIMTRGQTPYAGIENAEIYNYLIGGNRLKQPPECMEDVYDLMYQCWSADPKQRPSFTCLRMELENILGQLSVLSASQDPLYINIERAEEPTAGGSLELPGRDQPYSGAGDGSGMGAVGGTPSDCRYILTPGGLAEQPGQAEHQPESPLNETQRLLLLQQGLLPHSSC
Method: as §1, §2

[1] = clinical study, pharmacokinetics of Compound B; type: in vivo, human; settings: for AUC: human, blood, oral
From the text: In the present disclosure, “AUC” refers to the area surrounded by the pharmacokinetic blood drug concentration curve versus time axis. This parameter is an important indicator for evaluating the degree of drug absorption, reflecting the exposure profiles of the drug in vivo. Since the blood drug concentration in pharmacokinetic studies can only be observed up to a certain time point t, AUC can be expressed in the following two means: AUC (0-t) and AUC (0-∞), wherein AUC (0-t) is derived from the trapezoidal area, and AUC (0-∞) is calculated by the formula: AUC (0-∞)=AUC (0-t)+end point concentration/end point elimination rate. The AUC mentioned in the present application refers to the averaged AUC0-24 of the patient reaching a steady state after a single administration or multiple administrations, preferably the averaged AUC0-24 of the patient reaching a steady state after multiple administrations (i.e. AUCss).
Compound A: intravenous injection, 200 mg, once every 3 weeks, 1 cycle every 3 weeks; Compound B: 20 mg or 15 mg, oral administration, once a day.
Among the 12 subjects who participated in the pharmacokinetic study, PK blood was collected from 9 subjects.

[2] = tested on: advanced/metastatic colorectal cancer; settings: 25 mg, once a day, cited from earlier work
[3] = administration alone, 20 mg (n = 8)
[4] = co-administration with Compound A, 20 mg (n = 9)

CCN(CC)CCN1CCc2[nH]c(/C=C3\C(=O)Nc4ccc(F)cc43)c(C)c2C1=O [Compound B, famitinib malate]
ORR (kidney cancer): 36%
IC50 (Axl): 0.0368 µM
IC50 (Mer): 0.00435 µM
IC50 (TYRO3 (Rse)): 0.326 µM
Css, max, Geomean (Geometric % CV) [1, 3]: 59.9 (44.4) ng/mL
Css, max, Mean ± SD [1, 3]: 0.0643 ± 0.0238 µg/mL
Css, min, Geomean (Geometric CV %) [1, 3]: 29.8 (56.6) ng/mL
Css, min, Mean ± SD [1, 3]: 0.0332 ± 0.0146 µg/mL
Tss, max, Median (Min, Max) [1, 3]: 6 (2, 8) h
exposure amount of Compound B compared to administration alone ([1]; co-administrated with Compound A): increased
Css, max, Geomean (Geometric % CV) [1, 4]: 71.6 (24.3) ng/mL
Css, max, Mean ± SD [1, 4]: 0.0734 ± 0.0168 µg/mL
Css, min, Geomean (Geometric CV %) [1, 4]: 36.6 (28.8) ng/mL
Css, min, Mean ± SD [1, 4]: 0.038 ± 0.011 µg/mL
Tss, max, Median (Min, Max) [1, 4]: 6 (4, 10) h
AUC ([1]; 20 mg, administration alone, 20 mg (n = 8), read-out: AUCss, Geomean (Geometric % CV)): 1.09 µg·h/mL
AUC ([1]; 20 mg, administration alone, 20 mg (n = 8), read-out: AUCss, Mean ± SD): 1.19 ± 0.465 µg·h/mL
AUC ([1]; co-administration with Compound A, 20 mg (n = 9), read-out: AUCss, Geomean (Geometric % CV)): 1.33 µg·h/mL
AUC ([1]; co-administration with Compound A, 20 mg (n = 9), read-out: AUCss, Mean ± SD): 1.36 ± 0.3 µg·h/mL

CCN(CC)CCN1CCc2[nH]c(/C=C3\C(=O)Nc4ccc(F)cc43)c(C)c2C1=O [famitinib]
improvement of progression-free survival (PFS) compared to the placebo group ([2]; period of 42 days): 1.3 months
HR (PFS vs placebo) [2]: 0.596
adverse events [2]: adverse events are under control
disease control rate (DCR) [2]: 59.8%
median survival (mOS) [2]: 7.5 months
objective remission rate (ORR) [2]: 2.2%
